The results in this text go back to patent US12486246B2, “Replication protein A (RPA)-DNA interaction inhibitors” (THE TRUSTEES OF INDIANA UNIVERSITY, priority 2019, dated 2025).

The test system of data set [1] is sonicated salmon sperm DNA. In words: Fluorescent intercalator displacement (FID) assay, SYBR-Green. The note with it: 25 mM MOPS pH 6.5. It is filed as binding. As to the method:
The analysis of compound interactions with DNA was determined by inhibition of SYBR-Green intercalation into DNA as we have previously described. Briefly, reactions were performed in 25 mM MOPS (pH 6.5) containing sonicated salmon sperm DNA (8.29 ng/μL), SYBR-Green, and the indicated concentrations of RPA inhibitors. Reactions were conducted in black 96-well plates. Doxorubicin, a known noncovalent DNA binding chemotherapeutic, was used as a positive control. Fluorescence was measured using a BioTek® Synergy™ H1 hybrid multi-mode microplate reader with an excitation wavelength of 485 nm, emission wavelength of 528 nm, and a read height of 7 mm. Data were collected using BioTek® Gen5™ reader software. Reactions were incubated a maximum of 5 min before measurements were collected.
(§1) In order to probe the potential role of DNA intercalation as a mechanism for RPA inhibition, compounds 19, 23, 26, 27, 43 and 45 were analyzed using FID assay along with doxorubicin (Dox) as a positive control. […] In addition, direct binding of 9 derivatives to the target protein was assessed using a differential scan fluorimetry (DSF) assay. This assay assesses the melting profile of a protein at increasing temperatures via fluorescent dye binding. The direct interaction of a small molecule to the target protein can either increase or decrease the melting temperature (Tm) of the target depending on the specific protein and their interactions. […] Heparin sulfate, a known RPA interacting molecule often used in the purification of the protein was used as a control. […] (data not shown). […] (FIG. 1B).

The target in data set [2] is T1, RPA DBD-A/B construct (His6-RPA181-422 of RPA70) (Homo sapiens, UniProt P27694).
T1 construct: The DBD-A/B construct was expressed as a His6-RPA181-422 fusion protein; His6 (N); made in house; host or cells: E. coli BL21 (DE3)
The data set is described as follows: EMSA, binding of RPA DBD-A/B construct to DNA. Conditions: mean ± SD, read-out: RPAA/B IC50. As to the method:
(§2) Full length, heterotrimeric human RPA (fl-RPA) and DBD-A/B constructs were expressed and purified according to previously described protocol. The DBD-A/B construct was expressed as a His6-RPA181-422 fusion protein. E. coli BL21 (DE3) cells in log growth were induced for 3 h with 0.5 mM IPTG at 37° C. The cells were lysed via sonication in buffer containing 20 mM Tris pH 7.5, 500 mM NaCl, 10 mM b-mercaptoethanol, supplemented with 25 μg/mL lysozyme, 1 μg/mL leupeptin, 1 μg/mL pepstatin and 0.5 mM PMSF. The lysate was applied to a 20 mL phosphocellulose column equilibrated in the same buffer and the flow-through material collected, brought to 5 mM Imidazole and loaded onto a 2 ml Ni-NTA column. The column was washed and proteins eluted on with a gradient from 50 mM to 500 mM imidazole. Fractions were assessed by EMSA and SDS-PAGE and DBD-A/B containing fraction were pool, dialyzed against buffer containing 50 mM HEPES pH 7.0, 500 mM NaCl and 1 mM DTT and stored at −80° C.
(§3) EMSAs were carried out using previously described procedure with the following modification. EMSA reactions (20 μL) were performed with 50 nM fl-RPA and 2.5 nM 5′ [^32P]-labeled 34-base DNA in buffer containing 20 mM HEPES (pH 7.8), 1 mM DTT, 0.001% NP-40, 50 mM NaCl. Chemical compounds were suspended in DMSO and DMSO concentration in the reaction mixture was kept constant at 2% or below 5%. RPA was incubated with inhibitor or DMSO control in reaction buffer for 30 min before the addition of DNA. Reactions were incubated for 5 min at room temperature and products separated via 6% native polyacrylamide gel electrophoresis. The bound and unbound fractions were then quantified by phosphor-imager analysis using ImageQuant software (Molecular Dynamics, CA) and IC50 values calculated by non-linear regression using SigmPlot (Sysat). For EMSA reactions with RPA DBD-A/B, 150 nM DBD-A/B was used, and electrophoresis was performed at 4° C. All other conditions were identical to those described for the full-length RPA.
These domains are compact modular domains populated with hydrophobic and basic DNA binding amino acid residues and have great potential to influence binding of the compounds to the RPA70 subunit. RPA DBD-A/B construct was purified via Ni-affinity chromatography. The activity of compounds 23-27 was evaluated on purified DBD-A/B construct using EMSA.
(A gel shift assay detects complexes by their altered migration in electrophoresis.)

Data set [3] concerns the target T2, full length heterotrimeric human RPA (Homo sapiens, UniProt P27694).
T2 construct: Full length, heterotrimeric human RPA (fl-RPA) and DBD-A/B constructs were expressed and purified; made in house
The data set is described as follows: Electrophoretic mobility shift assay (EMSA), binding of full length human RPA to ssDNA. Conditions: for IC50: full length human RPA binding to DNA, mean ± SD of minimum triplicate experiments. As to the method:
as §2, §3
Purified full length heterotrimeric human RPA protein was used to screen a series of analogs in an electrophoretic mobility shift assay (EMSA) measuring direct binding to a ss-DNA substrate. Quantification of the EMSA data and additional concentration dependent analysis to measure IC50 values of newly synthesized analogs provided potential insight into the structure-activity relationships (Table 1 and 2). […] Fluorine and trifluoromethyl substituents were included in pyridinyl compounds 28-29.

Data set [4] can be described thus: Aqueous solubility in unbuffered water. The note with it: 43, 44, 45, 46, 47 vs 9, 16, 26, 28, 29 respectively. Format: physicochemical. As for the experimental part:
Aqueous solubility was determined by suspending compound in un-buffered water with stirring. Insoluble material was removed by sedimentation or filtration and soluble compound quantified by absorbance spectroscopy and LC/MS. pH dependence was determined by suspending compound in 10 mM citrate buffer at pH 4.0 or 10 mM phosphate […] as described above in the description.
The morpholine ring is commonly introduced into solvent exposed regions as a privileged solubilizing group to improve solubility or pharmacokinetic properties including metabolic stability of a prospective drug scaffold which is exemplified by many FDA approved drugs. Modifications on Ring A had less of an effect than the morpholino modifications at the alkyl carboxylic acid side chain. To determine the effect of pH on solubility, we prepared solution at 1 mM in citrate buffer at pH 4, phosphate buffer at pH 7 and carbonate buffer at pH 9.5.

Data set [5] concerns the target T3, RPA-AB construct (RPA70 AB domain) (Homo sapiens, UniProt P27694).
T3 construct: The DBD-A/B construct was expressed as a His6-RPA181-422 fusion protein; His6 (N); made in house; host or cells: E. coli BL21 (DE3)
The data set is described as follows: Differential scanning fluorimetry (DSF). Format: binding. As for the experimental part: as §1
The interaction of compound 43 with RPA-AB constructs was performed by differential scanning fluorimetry using GloMelt™ Dye (Biotum). […] Reactions were run in an ABI 7500 real time PCR machine with temperature increasing from 25° C. to 99° C. at a 2% ramp (˜40 minutes) and fluorescence of the reporter was measured on the SYBR® Green setting. […] Data was uploaded to TSA-CRAFT software and Tm calculated as described by Lee et al. Heparin was employed as a positive control of binding to the AB-box of RPA.

T2 sequence (P27694 whole entry): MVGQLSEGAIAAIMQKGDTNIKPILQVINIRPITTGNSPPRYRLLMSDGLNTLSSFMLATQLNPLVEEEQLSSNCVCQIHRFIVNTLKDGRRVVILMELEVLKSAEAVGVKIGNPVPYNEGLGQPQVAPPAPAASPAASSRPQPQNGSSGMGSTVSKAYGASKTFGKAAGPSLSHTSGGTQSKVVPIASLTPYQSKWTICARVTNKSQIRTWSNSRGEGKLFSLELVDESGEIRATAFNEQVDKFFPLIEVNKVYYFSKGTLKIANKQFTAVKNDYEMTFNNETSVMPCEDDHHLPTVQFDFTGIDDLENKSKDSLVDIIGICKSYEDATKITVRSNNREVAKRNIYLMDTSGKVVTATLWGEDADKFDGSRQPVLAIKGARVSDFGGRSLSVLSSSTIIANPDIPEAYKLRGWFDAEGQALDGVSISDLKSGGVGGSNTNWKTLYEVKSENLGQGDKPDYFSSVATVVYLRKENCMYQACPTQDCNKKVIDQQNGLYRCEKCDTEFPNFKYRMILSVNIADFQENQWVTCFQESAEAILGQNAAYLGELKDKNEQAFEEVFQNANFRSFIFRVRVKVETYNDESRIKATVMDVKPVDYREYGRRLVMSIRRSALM
T2 sequence (P15927 whole entry partner): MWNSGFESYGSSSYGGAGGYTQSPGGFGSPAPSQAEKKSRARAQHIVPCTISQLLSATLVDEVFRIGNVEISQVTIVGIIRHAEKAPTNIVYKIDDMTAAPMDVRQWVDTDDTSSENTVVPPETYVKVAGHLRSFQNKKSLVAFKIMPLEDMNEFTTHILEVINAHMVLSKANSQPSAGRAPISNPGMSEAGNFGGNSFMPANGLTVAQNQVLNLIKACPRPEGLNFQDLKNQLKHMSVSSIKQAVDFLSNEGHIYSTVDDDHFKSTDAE
T2 sequence (P35244 whole entry partner): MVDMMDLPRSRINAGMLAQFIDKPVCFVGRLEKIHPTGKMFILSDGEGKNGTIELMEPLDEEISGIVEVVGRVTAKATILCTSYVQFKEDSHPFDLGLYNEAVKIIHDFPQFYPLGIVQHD
T1 sequence (P27694 181-422): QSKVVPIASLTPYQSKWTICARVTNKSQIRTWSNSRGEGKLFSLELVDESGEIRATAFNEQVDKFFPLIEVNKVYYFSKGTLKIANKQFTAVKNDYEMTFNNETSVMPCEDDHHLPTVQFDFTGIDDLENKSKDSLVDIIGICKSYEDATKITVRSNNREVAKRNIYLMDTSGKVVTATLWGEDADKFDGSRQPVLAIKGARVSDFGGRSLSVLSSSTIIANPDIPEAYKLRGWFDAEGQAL
T3 sequence (P27694 181-422): as above

In the case of `CCOc1ccc2cc(C3CC(c4ccc(-c5ccco5)cc4)=NN3C(=O)CCCC(=O)O)c(Cl)nc2c1` (centres unmarked) [Compound 23, 5-(5-(2-Chloro-7-ethoxyquinolin-3-yl)-3-(4-(furan-2-yl)phenyl)-4,5-dihydro-1H-pyrazol-1-yl)-5-oxopentanoic acid], the “DNA binding activity (displacement of SYBR-Green intercalator)” value (“DNA binding activity” for short) in data set [1] is “No significant DNA binding activity”. Also, the IC50 came out at 3.3 ± 0.07 µM in data set [2] and 2.1 ± 0.48 µM in data set [3]. Besides, in data set [3] (full length RPA), the “fold increase in activity compared to compound 22” value was approximately 3.2 fold.

Consider `CCOc1ccc2cc(C3CC(c4ccc(-c5cnoc5)cc4)=NN3C(=O)CCCC(=O)O)c(Cl)nc2c1` (centres unmarked) [Compound 24, 5-(5-(2-Chloro-7-ethoxyquinolin-3-yl)-3-(4-(isoxazol-4-yl)phenyl)-4,5-dihydro-1H-pyrazol-1-yl)-5-oxopentanoic acid], for which the IC50 in data set [2] worked out at 4.03 ± 0.28 µM; in data set [3], 1.71 ± 0.28 µM.

Turning to `CCOc1ccc2cc(C3CC(c4ccc(-c5ccc(N6CCOCC6)cc5)cc4)=NN3C(=O)CCCC(=O)O)c(Cl)nc2c1` (centres unmarked) [Compound 25, 5-(5-(2-Chloro-7-ethoxyquinolin-3-yl)-3-(4′-morpholino-[1,1′-biphenyl]-4-yl)-4,5-dihydro-1H-pyrazol-1-yl)-5-oxopentanoic acid], the IC50 in data set [2] worked out at 16.4 ± 2.09 µM; in data set [3], 3.14 ± 0.23 µM.

As to `CCOc1ccc2cc(C3CC(c4ccc(-c5ccc(Br)nc5)cc4)=NN3C(=O)CCCC(=O)O)c(Cl)nc2c1` (centres unmarked) [Compound 27, 5-(3-(4-(6-Bromopyridin-3-yl)phenyl)-5-(2-chloro-7-ethoxyquinolin-3-yl)-4,5-dihydro-1H-pyrazol-1-yl)-5-oxopentanoic acid], in data set [1], the “DNA binding activity” value is “No significant DNA binding activity”. Further, the IC50 stood at 3.32 ± 0.016 µM in data set [2] and 1.01 ± 0.6 µM in data set [3].

As to `CCOc1ccc2cc(C3CC(c4ccc(-c5ccc(Cl)nc5)cc4)=NN3C(=O)CCCC(=O)NCCCN3CCOCC3)c(Cl)nc2c1` (centres unmarked) [Compound 45, 5-(5-(2-Chloro-7-ethoxyquinolin-3-yl)-3-(4-(6-chloropyridin-3-yl)phenyl)-4,5-dihydro-1H-pyrazol-1-yl)-N-(3-morpholinopropyl)-5-oxopentanamide], the “DNA binding activity” value in data set [1] is reported as “No significant DNA binding activity”. Besides, in data set [3], the IC50 was 4.06 ± 0.56 µM. In addition, in data set [4], the “aqueous solubility compared to carboxylic acid counterpart (in words)” value was “increased solubility”.

On to `CCOc1ccc2cc(C3CC(c4ccc(-c5ccc(C(F)(F)F)nc5)cc4)=NN3C(=O)CCCC(=O)NCCCN3CCOCC3)c(Cl)nc2c1` (centres unmarked) [Compound 47, 5-(5-(2-Chloro-7-ethoxyquinolin-3-yl)-3-(4-(6-(trifluoromethyl)pyridin-3-yl)phenyl)-4,5-dihydro-1H-pyrazol-1-yl)-N-(3-morpholinopropyl)-5-oxopentanamide], for which the IC50 in data set [3] was 5.85 ± 0.39 µM. The “aqueous solubility compared to carboxylic acid counterpart (in words)” value in data set [4] was “increased solubility”.

In the case of heparin [reference compound], in data set [5], the “decrease in Tm” value is 1.2 °C.
